From patent publication US12637499B2, “Adrenomedullin analog, method for producing the same, and pharmaceutical use thereof” (priority 2020, dated 2026)

Legend:
in vitro [1] = conditions: serum, pH 7.1
Protocol: (§1) After the lapse of a predetermined time, a 30-μl portion was taken out of the reaction solution, transferred into 170 μl of 0.1% aqueous solution of trifluoroacetic acid (TFA), and stored at −80° C. until analysis.
(§2) Quantitative analysis was performed for AM contained in the thus-obtained samples of a reaction mixture with serum or plasma by using specific fluoroimmunoassay (Tosoh Corporation) with two antibodies differing in their recognition sites. […] In the figure, the abscissa represents reaction time (min), and the ordinate represents concentration of AM (UM).
In the figure, the abscissa represents reaction time (min), and the ordinate represents concentration of AM or an AM analog (μM).
In the figure, the abscissa represents the type of AM or an AM analog, and the ordinate represents residual rates of AM or an AM analog (%).

in vitro [2] = conditions: plasma, pH 7.1
Protocol: as §1, §2

in vitro [3] = conditions: Experiment VIII; 10^−7 M, 37° C.; 1 hour after the beginning of reaction
in vivo = conditions: male, Wistar, rat, plasma, sc, 50 nmol/kg
Protocol: Eight-week-old male Wistar rats were purchased from Charles River Laboratories Japan, Inc. The rats were grown with normal feeds in the absence of specific pathogens under cycles of a 12-hour light period and a 12-hour dark period. […] To determine plasma AM concentrations, 50 nmol/kg of AM or an AM analog was subcutaneously administered. A peripheral blood sample was collected from the tail vein into a test tube (containing 21 μg of aprotinin and 0.3 mg of EDTA-2Na) at predetermined times (0, 15, 30, 60, and 120 minutes after administration). The test tube was centrifuged at 1,700×g to afford plasma.

CC[C@H](C)[C@H](NC(=O)[C@H](CCC(N)=O)NC(=O)[C@H](Cc1c[nH]cn1)NC(=O)[C@H](C)NC(=O)[C@H](CC(C)C)NC(=O)[C@H](CCCCN)NC(=O)[C@H](CCC(N)=O)NC(=O)[C@@H](NC(=O)[C@@H](NC(=O)[C@@H]1CSSC[C@H](NC(=O)CNC(=O)[C@H](Cc2ccccc2)NC(=O)[C@H](CO)NC(=O)[C@H](CCCNC(=N)N)NC(=O)[C@H](CC(C)C)NC(=O)CNC(=O)[C@H](CCC(N)=O)NC(=O)[C@H](Cc2ccccc2)NC(=O)[C@H](CC(N)=O)NC(=O)[C@H](CC(N)=O)NC(=O)[C@H](CCSC)NC(=O)[C@H](CO)NC(=O)[C@H](CCC(N)=O)NC(=O)[C@H](CCCNC(=N)N)NC(=O)[C@@H](N)Cc2ccc(O)cc2)C(=O)N[C@@H](CCCNC(=N)N)C(=O)N[C@@H](Cc2ccccc2)C(=O)NCC(=O)N[C@@H]([C@@H](C)O)C(=O)N1)[C@@H](C)O)C(C)C)C(=O)N[C@@H](Cc1ccc(O)cc1)C(=O)N[C@@H](CCC(N)=O)C(=O)N[C@@H](Cc1ccccc1)C(=O)N[C@H](C(=O)N[C@@H](CC(=O)O)C(=O)N[C@@H](CCCCN)C(=O)N[C@@H](CC(=O)O)C(=O)N[C@@H](CCCCN)C(=O)N[C@@H](CC(=O)O)C(=O)N[C@@H](CC(N)=O)C(=O)N[C@H](C(=O)N[C@@H](C)C(=O)N1CCC[C@H]1C(=O)N[C@@H](CCCNC(=N)N)C(=O)N[C@@H](CO)C(=O)N[C@@H](CCCCN)C(=O)N[C@H](C(=O)N[C@@H](CO)C(=O)N1CCC[C@H]1C(=O)N[C@@H](CCC(N)=O)C(=O)NCC(=O)N[C@@H](Cc1ccc(O)cc1)C(N)=O)[C@@H](C)CC)C(C)C)[C@@H](C)O [hAM(1-52), YRQSMNNFQGLRSFGCRFGTCTVQKLAHQIYQFTDKDKDNVAPRSKISPQGY-CONH2, reference compound]
remaining at 4 h (in vitro [1]): 0.2% | remaining at 4 h (in vitro [2]): 85% | presence in reaction mixture with human serum (in vitro [3]): substantially disappeared | half-life (in vivo): 1.23 h
